From patent US8476287B2, “3-hydroxy-5-arylisothiazole derivative” (Mochida Pharmaceutical Co., Ltd., priority 2009, dated 2013) come the findings set out here.

Each structure is given as a SMILES string. Structures can show the parent of a compound that is named as a salt.

T1 sequence (O14842 whole entry): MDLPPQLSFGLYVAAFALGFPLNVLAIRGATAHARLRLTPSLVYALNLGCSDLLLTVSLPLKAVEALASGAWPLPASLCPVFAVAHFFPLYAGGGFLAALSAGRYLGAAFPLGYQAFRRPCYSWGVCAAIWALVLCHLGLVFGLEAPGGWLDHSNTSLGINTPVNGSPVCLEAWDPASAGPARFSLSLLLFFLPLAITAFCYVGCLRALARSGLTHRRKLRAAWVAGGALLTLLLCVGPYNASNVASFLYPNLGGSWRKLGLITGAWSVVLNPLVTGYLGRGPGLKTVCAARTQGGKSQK

This assay addresses T1, GPR40 of human origin (Homo sapiens, UniProt O14842).
T1 construct: expressed in transfected cells
In words: Agonist action on GPR40 of human origin (Ca2+ fluorescence in CHO cells). It counts as cell-based. Particulars: CHO cell strain stably expressing GPR40 of human origin; Ca2+ concentration fluctuation, fluorescent calcium indicator. The protocol:
A CHO cell strain stably expressing GPR40 of human origin was used to determine the agonist action of a subject compound. This cell strain was seeded in a clear bottom 96 well plate at 4×10^4 cells/100 μL/well. The cell strain was cultured in a CO2 incubator overnight using a Ham's F-12 medium containing a 10% fetal bovine serum, 100 U/mL penicillin, 0.1 mg/mL streptomycin, and 400 μg/mL Geneticin. Calcium 4 Assay Kit (Molecular Devices) was used as a fluorescent calcium indicator. One mL of 77 mg/mL probenecid (Invitrogen) was added to 100 mL of a calcium indicator solution to prepare a solution (loading solution) mixed with a 20 mM HEPES-containing Hanks' balanced salt solution (HBSS) in equal proportions. 200 μL of the loading solution was added to the cells from which the culture solution was removed, and the cells were cultured in a CO2 incubator for 1 hour. The subject compound was diluted with a 20 mM HEPES-containing HBSS and was added to the cells by 50 μL, and the fluctuation of the Ca^2+ concentration was measured by an intracellular ion analyzer. The EC50 value of the subject compound was calculated using the dose-response curve of fluorescence intensity variation.
On to `Cc1nc(OCCCN2CCCC2=O)nc(C)c1-c1cccc(COc2ccc(-c3cc(O)n[s+]3[O-])cc2)c1C` (centres unmarked) [Example 37, 5-(4-((3-(4,6-dimethyl-2-(3-(2-oxopyrrolidin-1-yl)propoxy)pyrimidin-5-yl)-2-methylphenyl)methoxy)phenyl)isothiazol-3-ol 1-oxide(A)], for which the EC50 was 300 to 3000 nM.

For the molecule `COc1ccc(-c2cccc3c2CC[C@H]3Oc2ccc(-c3cc(O)n[s+]3[O-])cc2)c(C)n1` (stereo partly drawn) [Example 119, 5-[4-[[(1R)-4-(6-methoxy-2-methylpyridin-3-yl)-2,3-dihydro-1H-inden-1-yl]oxy]phenyl]isothiazol-3-ol 1-oxide(A)trifluoroacetate salt], the EC50 was less than 300 nM.

Take `[O-][s+]1nc(O)cc1-c1ccc(OC2CCc3c(OCc4ccccc4)cccc32)cc1` (centres unmarked) [Example 129, 5-[4-[(4-phenylmethoxy-2,3-dihydro-1H-inden-1-yl)oxy]phenyl]isothiazol-3-ol 1-oxide(A)]: the EC50 was less than 300 nM.

In the case of `[O-][s+]1nc(O)cc1-c1ccc(OCc2cccc(Oc3ccccc3)c2)cc1` (centres unmarked) [Example 2, 5-(4-((3-phenoxyphenyl)methoxy)phenyl)isothiazol-3-ol 1-oxide], the EC50 lay within 300 to 3000 nM.

In the case of `Cc1cc(OC[C@H](O)CO)c(F)c(C)c1-c1cccc(COc2ccc(-c3cc(O)n[s+]3[O-])cc2)c1` (stereo partly drawn) [Example 59, 5-(4-((3-(4-((2R)-2,3-dihydroxypropoxy)-2,6-dimethyl-3-fluorophenyl)phenyl)methoxy)phenyl)isothiazol-3-ol 1-oxide(A)], the EC50 was less than 300 nM.

Consider `[O-][s+]1nc(O)cc1-c1ccc(O[C@@H]2CCc3c(-c4ccc(N5CCCCC5)nc4)cccc32)cc1` (single isomer, unassigned) [Example 118], for which the concentration giving a half-maximal response (EC50) is less than 300 nM.

For the molecule `[O-][s+]1nc(O)cc1-c1ccc(O[C@@H]2CCc3c(-c4cccnc4C(F)(F)F)cccc32)cc1` (single isomer, unassigned) [Example 117], the EC50 was in the range of 300 to 3000 nM.

`[O-][s+]1nc(O)cc1-c1ccc(OC2CCOc3cc(C(F)(F)F)ccc32)cc1` (centres unmarked) [Example 83, 5-[4-[[7-(trifluoromethyl)-3,4-dihydro-2H-chromen-4-yl]oxy]phenyl]isothiazol-3-ol 1-oxide(A)]: the EC50 was in the range of 300 to 3000 nM.

Turning to `[O-][s+]1nc(O)cc1-c1ccc(OCc2cccc(Cl)c2)cc1` (single isomer, unassigned) [Example 89, 5-[4-[(3-chlorophenyl)methoxy]phenyl]isothiazol-3-ol 1-oxide(A)], the EC50 was less than 300 nM.

On to `Cc1cc(OCC[C@@H](C)O)cc(C)c1-c1cccc(COc2ccc(-c3cc(O)n[s+]3[O-])cc2)c1` (stereo partly drawn) [Example 63, 5-(4-((3-(2,6-dimethyl-4-((3R)-3-hydroxybutoxy)phenyl)phenyl)methoxy)phenyl)isothiazol-3-ol 1-oxide(A)], for which the EC50 is less than 300 nM.

For `Cc1cc(OCCCN)cc(C)c1-c1cccc(COc2ccc(-c3cc(O)n[s+]3[O-])cc2)c1` (centres unmarked) [Example 78, 5-[4-[[3-[4-(3-aminopropoxy)-2,6-dimethylphenyl]phenyl]methoxy]phenyl]isothiazol-3-ol 1-oxide(A)], the EC50 was less than 300 nM.

As to `CCOCCOc1cc(C)c(-c2cccc3c2CC[C@H]3Oc2ccc(-c3cc(O)n[s+]3[O-])cc2)c(C)c1` (single isomer, unassigned) [Example 139], the EC50 was less than 300 nM.

Consider `Cc1cc(OCCO)cc(C)c1-c1cccc(COc2ccc(-c3cc(O)n[s+]3[O-])cc2)c1C` (centres unmarked) [Example 51, 5-(4-((3-(2,6-dimethyl-4-(2-hydroxyethoxy)phenyl)-2-methylphenyl)methoxy)phenyl)isothiazol-3-ol 1-oxide(A)], for which the 50% effective concentration (EC50) was less than 300 nM.

For `Cc1cc(OCCCS(C)(=O)=O)c(F)c(C)c1-c1cccc(COc2ccc(-c3cc(O)n[s+]3[O-])cc2)c1` (centres unmarked) [Example 27, 5-(4-((3-(2,6-dimethyl-3-fluoro-4-(3-(methylsulfonyl)propoxy)phenyl)phenyl)methoxy)phenyl)isothiazol-3-ol 1-oxide(A)], the EC50 was less than 300 nM.

On to `CCOCCOc1cc(C)c(-c2cccc(COc3ccc(-c4cc(O)n[s+]4[O-])cc3)c2)c(C)c1F` (centres unmarked) [Example 22, 5-(4-((3-(2,6-dimethyl-4-(2-ethoxyethoxy)-3-fluorophenyl)phenyl)methoxy)phenyl)isothiazol-3-ol 1-oxide(A)], for which the EC50 is less than 300 nM.

As for `[O-][s+]1nc(O)cc1-c1ccc(O[C@@H]2CCc3c(Br)cccc32)cc1` (stereo partly drawn) [Example 66, 5-(4-((1R)-4-bromo-2,3-dihydro-1H-inden-1-yloxy)phenyl)isothiazol-3-ol 1-oxide(A)], the EC50 is less than 300 nM.

For `COc1cc(Oc2cccc3c2CCC3Oc2ccc(-c3cc(O)n[s+]3[O-])cc2)ccn1` (centres unmarked) [Example 126, 5-[4-[[4-(2-methoxypyridin-4-yl)oxy-2,3-dihydro-1H-inden-1-yl]oxy]phenyl]isothiazol-3-ol 1-oxide(A)], the EC50 is less than 300 nM.

Turning to `Cc1cc(OCCCO)nc(C)c1-c1cccc(COc2ccc(-c3cc(O)n[s+]3[O-])cc2)c1` (centres unmarked) [Example 49, 5-(4-((3-(2,4-dimethyl-6-(3-hydroxypropoxy)pyridin-3-yl)phenyl)methoxy)phenyl)isothiazol-3-ol 1-oxide(A)], the EC50 was less than 300 nM.

For the molecule `Cc1cc(OCC[C@H](C)O)cc(C)c1-c1cccc(COc2ccc(-c3cc(O)n[s+]3[O-])cc2)c1C` (stereo partly drawn) [Example 61, 5-(4-((3-(2,6-dimethyl-4-((3S)-3-hydroxybutoxy)phenyl)-2-methylphenyl)methoxy)phenyl)isothiazol-3-ol 1-oxide(A)], the EC50 is less than 300 nM.

On to `Cc1cc(OCCCN2CCCC2=O)nc(C)c1-c1cccc(COc2ccc(-c3cc(O)n[s+]3[O-])cc2)c1` (centres unmarked) [Example 35, 5-(4-((3-(2,4-dimethyl-6-(3-(2-oxopyrrolidin-1-yl)propoxy)pyridin-3-yl)phenyl)methoxy)phenyl)isothiazol-3-ol 1-oxide(A)], for which the EC50 was less than 300 nM.
